Tested on: EMG in IL-4 KO mice immunized with TAChR
Experiment: Transfer of CD4+ cells from peptide-treated B6 mice into IL-4 KO mice, EMG
Assay type: in vivo, mouse
Conditions: cells three times, three TAChR immunizations, 14 weeks
Description: CD4^+ cells from wild type B6 mice that sniffed TACBR CD4^+ epitopes protect IL-4 KO R6 mice from development of EMG. Spleen CD4^+ cells were purified from wild type B6 mice that had sniffed a pool of the AChR a subunit peptide epitopes α50-169, α81-200 and α361-380, or peptide-free PBS (sham-treated). 10×10^6 CD4^+ cells from peptide-treated or sham-treated B6 mice to IL-4 KO B6 mice were administered i.v. (blue arrowhead in FIG. 25), just prior to a single immunization with TAChR (red arrowhead in FIG. 25). The strength of the mice was measured every 2 weeks, for 20 weeks after the TAChR immunization (FIG. 25). […] The lesser frequency of EMG as compared to the experiments described above is likely due to the use of a single immunizing injection of TAChR, or to variability in the susceptibility to EMG in different batch of IL-4 KO mice, similar to that described in other mouse strains.
All IL-4 KO mice treated with CD4^+ cells from sham-treated B6 donors developed EMG from week four onwards (FIG. 26). […] By week 10 (i.e., two weeks after the second TAChR immunization). […]

**Q.** “peptide Tα150-169: synthetic peptide corresponding to residues 150-169 of the TAChR α subunit (TYDGTKVSISPESDRPDLST; UniProt P02710 174-193, looked up, fragment)” was tested. Which “recipients that developed EMG” value did it give?
**A.** Only one mouse

— patent publication US6759385B1, “Methods to treat undesirable immune responses” (Regents of the University of Minnesota, priority 1997, dated 2004)
